In the supplement of paper PMC10307832:

How the values were obtained:
Assay in all cases: relative viability (nuclei count vs DMSO), 5 days (fraction); higher = more cells survive
BX 795 + Luminespib = compound: O=C(NCCCNc1nc(Nc2cccc(NC(=O)N3CCCC3)c2)ncc1I)c1cccs1 [BX 795] + CCNC(=O)c1noc(-c2cc(C(C)C)c(O)cc2O)c1-c1ccc(CN2CCOCC2)cc1 [Luminespib] (partner 0.01 µM)
Outline: (§1)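 Relative viability was taken as the ratio of nuclei in treated wells to nuclei in vehicle wells. Lung cancer cell lines in 1536-well plates received compounds by pin tool one day after seeding, either one drug alone or a fixed anchor-drug dose plus five library-drug doses (not always all listed) in √10 steps. Nuclei were counted on 4× images after 5 days of treatment, and values are medians of duplicate plates.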

BX 795 + Vorinostat = compound: O=C(NCCCNc1nc(Nc2cccc(NC(=O)N3CCCC3)c2)ncc1I)c1cccs1 [BX 795] + O=C(CCCCCCC(=O)Nc1ccccc1)NO [Vorinostat] (partner 1 µM)
Outline: as §1

BX 795 + Pemetrexed = compound: O=C(NCCCNc1nc(Nc2cccc(NC(=O)N3CCCC3)c2)ncc1I)c1cccs1 [BX 795] + Nc1nc2[nH]cc(CCc3ccc(C(=O)N[C@@H](CCC(=O)O)C(=O)O)cc3)c2c(=O)[nH]1 [Pemetrexed] (partner 0.2 µM)
Outline: as §1

BX 795 + Foretinib = compound: O=C(NCCCNc1nc(Nc2cccc(NC(=O)N3CCCC3)c2)ncc1I)c1cccs1 [BX 795] + COc1cc2c(Oc3ccc(NC(=O)C4(C(=O)Nc5ccc(F)cc5)CC4)cc3F)ccnc2cc1OCCCN1CCOCC1 [Foretinib] (partner 0.25 µM)
Outline: as §1

BX 795 + Palbociclib = compound: O=C(NCCCNc1nc(Nc2cccc(NC(=O)N3CCCC3)c2)ncc1I)c1cccs1 [BX 795] + CC(=O)c1c(C)c2cnc(Nc3ccc(N4CCNCC4)cn3)nc2n(C2CCCC2)c1=O [Palbociclib] (partner 0.5 µM)
Outline: as §1

Cell Line	relative viability (BX 795 + Luminespib; first compound 0.04 µM)	relative viability (BX 795 + Luminespib; first compound 0.1265 µM)	relative viability (BX 795 + Luminespib; first compound 0.4 µM)	relative viability (BX 795 + Luminespib; first compound 1.265 µM)	relative viability (BX 795 + Vorinostat; first compound 0.04 µM)	relative viability (BX 795 + Vorinostat; first compound 0.1265 µM)	relative viability (BX 795 + Vorinostat; first compound 0.4 µM)	relative viability (BX 795 + Vorinostat; first compound 1.265 µM)	relative viability (BX 795 + Pemetrexed; first compound 0.04 µM)	relative viability (BX 795 + Pemetrexed; first compound 0.1265 µM)	relative viability (BX 795 + Pemetrexed; first compound 0.4 µM)	relative viability (BX 795 + Pemetrexed; first compound 1.265 µM)	relative viability (BX 795 + Foretinib; first compound 0.04 µM)	relative viability (BX 795 + Foretinib; first compound 0.1265 µM)	relative viability (BX 795 + Foretinib; first compound 0.4 µM)	relative viability (BX 795 + Foretinib; first compound 1.265 µM)	relative viability (BX 795 + Palbociclib; first compound 0.04 µM)	relative viability (BX 795 + Palbociclib; first compound 0.1265 µM)	relative viability (BX 795 + Palbociclib; first compound 0.4 µM)	relative viability (BX 795 + Palbociclib; first compound 1.265 µM)
BEN	0.458	0.432	0.351	0.312	0.591	0.559	0.582	0.526	0.803	0.766	0.771	0.771	0.54	0.645	0.818	0.803	0.454	0.436	0.49	0.491
NCI-H1993	0.686	1.1	0.726	0.532	0.833	0.731	0.577	0.524	0.624	0.616	0.623	0.585	0.804	0.961	0.73	0.665	0.67	0.744	0.671	0.642
EKVX	0.893	0.977	0.825	0.79	0.865	0.696	0.738	0.537	0.309	0.379	0.228	0.386	0.496	0.893	0.516	0.726	0.51	0.483	0.381	0.365
A-427	0.779	0.866	0.643	0.665	0.915	0.812	0.872	0.754	1.02	0.925	1.08	0.849	0.98	1.12	1.07	0.897	0.562	0.482	0.508	0.502
A549	–	–	–	–	–	–	–	–	–	–	–	–	0.911	1.02	1.03	0.647	–	–	–	–
COR-L23	0.576	0.573	0.71	0.197	0.379	0.458	0.205	0.106	0.204	0.188	0.176	0.171	1.07	0.97	0.909	0.715	0.359	0.287	0.253	0.191
NCI-H1437	1.13	1.14	1.17	1.12	0.765	0.945	1.02	0.621	0.277	0.305	0.257	0.321	1.08	1.25	1.39	0.99	0.336	0.34	0.344	0.358
PC-3 [JPC-3]	0.67	0.628	0.774	0.698	0.766	–	0.929	0.809	1.04	–	1.16	1.02	1.03	1.03	1.03	0.949	0.539	–	0.57	0.543
LCLC-97TM1	0.939	0.657	0.774	0.456	0.774	0.725	0.768	0.468	0.152	0.184	0.177	0.184	0.912	0.913	0.862	0.567	0.22	0.201	0.314	0.208
NCI-H1793	0.153	0.137	0.168	0.182	0.888	0.753	0.803	0.293	0.872	0.628	0.856	0.711	0.887	0.663	0.834	0.266	0.386	0.246	0.384	0.296
HCC-15	0.346	0.298	0.298	0.408	0.773	0.865	0.818	0.718	0.199	0.202	0.215	0.194	0.973	1.04	0.925	0.915	0.766	0.712	0.663	0.616
SK-LU-1	0.224	0.217	–	0.173	0.674	0.764	0.595	0.593	0.895	0.988	0.646	0.823	0.762	0.902	–	0.569	0.384	0.348	0.328	0.392
NCI-H358	0.471	0.325	0.635	0.218	0.716	0.661	0.434	0.138	0.167	0.168	0.134	0.123	0.656	0.837	0.532	0.393	0.132	0.134	0.131	0.107
NCI-H1975	0.228	0.427	0.139	0.183	0.761	0.713	0.656	0.399	0.272	0.299	0.247	0.297	0.833	1.11	0.972	0.898	0.758	0.712	0.509	0.526
NCI-H1666	1	1.04	1.07	0.893	1.13	0.97	1.22	0.923	0.836	0.83	0.697	0.79	1.07	1.05	1.11	0.787	0.536	0.641	0.7	0.657
H3255	0.891	0.852	0.979	0.891	0.79	0.797	0.938	0.754	0.615	0.531	0.584	0.509	0.965	0.764	1.02	0.848	0.323	0.276	0.314	0.316
